Source: article PMC5218480 (PLoS ONE, 2017)

System: MV-4-11 cells
Assay: Gene expression microarray analysis (Affymetrix PrimeView) and GSEA
Assay type: cell-based, human
Design: RFU PODN (11730768_x_at) / Fold change /veh PODN (11730768_x_at) / RFU LINC00158 (11744669_a_at) / Fold change /veh LINC00158 (11744669_a_at) / RFU DUSP10 (11751237_a_at) / Fold change /veh DUSP10 (11751237_a_at) / RFU ID3 (11757404_x_at) / Fold change /veh ID3 (11757404_x_at) / RFU PLEKHG5 (11737974_s_at) / Fold change /veh PLEKHG5 (11737974_s_at) / RFU LRRC4B (11730491_at) / Fold change /veh LRRC4B (11730491_at) / RFU GIMAP4 (11747438_a_at) / Fold change /veh GIMAP4 (11747438_a_at) / RFU KRT8 (11758183_x_at) / Fold change /veh KRT8 (11758183_x_at) / RFU CNN1 (11734310_a_at) / Fold change /veh CNN1 (11734310_a_at) / RFU VPS37D (11726825_at) / Fold change /veh VPS37D (11726825_at) / RFU C10orf10 (11716522_x_at) / Fold change /veh C10orf10 (11716522_x_at) / RFU KIR2DL2 /// KIR2DL4 /// KIR2DL5A /// KIR2DL5B /// KIR2DS1 /// KIR2DS2 /// KIR2DS3 /// KIR2DS4 /// KIR3DL3 /// KIR3DL3 /// KIR3DS1 (11738374_at) / Fold change /veh KIR2DL2 /// KIR2DL4 /// KIR2DL5A /// KIR2DL5B /// KIR2DS1 /// KIR2DS2 /// KIR2DS3 /// KIR2DS4 /// KIR3DL3 /// KIR3DL3 /// KIR3DS1 (11738374_at) / RFU C1QL1 (11718748_at) / Fold change /veh C1QL1 (11718748_at) / RFU TMPRSS4 (11747572_a_at) / Fold change /veh TMPRSS4 (11747572_a_at) / RFU HAMP (11756126_x_at) / Fold change /veh HAMP (11756126_x_at) / RFU RNFT2 (11725882_a_at) / Fold change /veh RNFT2 (11725882_a_at) / RFU NR4A2 (11747474_a_at) / Fold change /veh NR4A2 (11747474_a_at) / RFU ABCC12 (11746883_a_at) / Fold change /veh ABCC12 (11746883_a_at) / RFU TMEM136 (11760407_x_at) / Fold change /veh TMEM136 (11760407_x_at) / RFU CLDN22 /// WWC2 (11732394_at) / Fold change /veh CLDN22 /// WWC2 (11732394_at) / RFU HLA-DPB1 (11760878_x_at) / Fold change /veh HLA-DPB1 (11760878_x_at) / RFU SPINT1 (11716480_a_at) / Fold change /veh SPINT1 (11716480_a_at) / RFU GAP43 (11754022_s_at) / Fold change /veh GAP43 (11754022_s_at) / RFU A4GNT (11735810_at) / Fold change /veh A4GNT (11735810_at) / RFU PRB3 (11715151_x_at) / Fold change /veh PRB3 (11715151_x_at) / RFU TUBB4B (11761932_at) / Fold change /veh TUBB4B (11761932_at) / RFU CAPN14 (11732068_a_at) / Fold change /veh CAPN14 (11732068_a_at) / RFU TMCC2 (11721928_a_at) / Fold change /veh TMCC2 (11721928_a_at) / RFU IRGQ (11745062_a_at) / Fold change /veh IRGQ (11745062_a_at) / RFU FAM174B (11720279_a_at) / Fold change /veh FAM174B (11720279_a_at) / RFU TMPRSS4 (11748680_a_at) / Fold change /veh TMPRSS4 (11748680_a_at) / RFU FAM212B (11763350_a_at) / Fold change /veh FAM212B (11763350_a_at) / RFU PLEKHG5 (11743358_a_at) / Fold change /veh PLEKHG5 (11743358_a_at) / RFU ZSCAN30 (11745921_a_at) / Fold change /veh ZSCAN30 (11745921_a_at) / RFU CMKLR1 (11741424_a_at) / Fold change /veh CMKLR1 (11741424_a_at) / RFU LOC101060620 /// MAPK8IP1 (11723275_at) / Fold change /veh LOC101060620 /// MAPK8IP1 (11723275_at) / RFU SPTSSB (11747773_x_at) / Fold change /veh SPTSSB (11747773_x_at) / RFU PRSS12 (11739890_at) / Fold change /veh PRSS12 (11739890_at) / RFU BIN1 (11741810_x_at) / Fold change /veh BIN1 (11741810_x_at) / RFU WNT11 (11732464_a_at) / Fold change /veh WNT11 (11732464_a_at) / RFU C10orf10 (11716521_a_at) / Fold change /veh C10orf10 (11716521_a_at) / RFU C5orf56 (11738089_at) / Fold change /veh C5orf56 (11738089_at) / RFU CYB561 (11721691_x_at) / Fold change /veh CYB561 (11721691_x_at) / RFU ANKRD19P (11752326_a_at) / Fold change /veh ANKRD19P (11752326_a_at) / RFU OR2T12 /// OR2T33 /// OR2T8 (11738714_s_at) / Fold change /veh OR2T12 /// OR2T33 /// OR2T8 (11738714_s_at) / RFU VCAN (11748164_a_at) / Fold change /veh VCAN (11748164_a_at) / RFU JSRP1 (11732532_at) / Fold change /veh JSRP1 (11732532_at) / RFU KRTAP10-11 (11738290_x_at) / Fold change /veh KRTAP10-11 (11738290_x_at) / RFU MYO3A (11730013_a_at) / Fold change /veh MYO3A (11730013_a_at) / RFU EBF3 (11725865_a_at) / Fold change /veh EBF3 (11725865_a_at) / RFU CAMK2N1 (11719241_x_at) / Fold change /veh CAMK2N1 (11719241_x_at) / RFU C5orf56 (11738088_a_at) / Fold change /veh C5orf56 (11738088_a_at) / RFU OLFML3 (11715873_a_at) / Fold change /veh OLFML3 (11715873_a_at) / RFU LOC100653217 /// NTM (11731650_a_at) / Fold change /veh LOC100653217 /// NTM (11731650_a_at) / RFU MAPK11 (11762145_a_at) / Fold change /veh MAPK11 (11762145_a_at) / RFU FIZ1 (11724087_x_at) / Fold change /veh FIZ1 (11724087_x_at) / RFU OASL (11726364_x_at) / Fold change /veh OASL (11726364_x_at) / RFU SOX15 (11748057_x_at) / Fold change /veh SOX15 (11748057_x_at) / RFU CD79A (11719716_a_at) / Fold change /veh CD79A (11719716_a_at) / RFU HIST1H1D (11736915_at) / Fold change /veh HIST1H1D (11736915_at) / RFU CASKIN2 (11723855_a_at) / Fold change /veh CASKIN2 (11723855_a_at) / RFU LOC730098 (11760151_x_at) / Fold change /veh LOC730098 (11760151_x_at) / RFU OR4N2 (11742367_at) / Fold change /veh OR4N2 (11742367_at) / RFU PRRT2 (11749266_a_at) / Fold change /veh PRRT2 (11749266_a_at) / RFU SNX32 (11753110_a_at) / Fold change /veh SNX32 (11753110_a_at) / RFU CDHR5 (11726645_a_at) / Fold change /veh CDHR5 (11726645_a_at) / RFU RCAN1 (11760418_a_at) / Fold change /veh RCAN1 (11760418_a_at) / RFU FAM167A (11723789_a_at) / Fold change /veh FAM167A (11723789_a_at) / RFU FAM26E (11764081_at) / Fold change /veh FAM26E (11764081_at) / RFU ISYNA1 (11749810_s_at) / Fold change /veh ISYNA1 (11749810_s_at) / RFU ACY1 (11761880_at) / Fold change /veh ACY1 (11761880_at) / RFU 11764098_at / Fold change /veh 11764098_at / RFU SAMD14 (11745864_x_at) / Fold change /veh SAMD14 (11745864_x_at) / RFU NPB (11741838_a_at) / Fold change /veh NPB (11741838_a_at) / RFU TMPRSS6 (11731388_a_at) / Fold change /veh TMPRSS6 (11731388_a_at) / RFU KRTAP10-2 (11738614_at) / Fold change /veh KRTAP10-2 (11738614_at) / RFU ARHGAP8 /// PRR5-ARHGAP8 (11727945_x_at) / Fold change /veh ARHGAP8 /// PRR5-ARHGAP8 (11727945_x_at) / RFU KRTAP5-7 /// NADSYN1 (11734609_at) / Fold change /veh KRTAP5-7 /// NADSYN1 (11734609_at) / RFU RASL12 (11751679_a_at) / Fold change /veh RASL12 (11751679_a_at) / RFU CDKN2B (11736163_a_at) / Fold change /veh CDKN2B (11736163_a_at) / RFU PRF1 (11729649_at) / Fold change /veh PRF1 (11729649_at) / RFU, ZNF638 /// ZNF638-IT1 / Fold change vs veh, ZNF638 /// ZNF638-IT1 / RFU, PANK3 / Fold change vs veh, PANK3 / RFU, SH3YL1 / Fold change vs veh, SH3YL1 / RFU, ZEB2 / Fold change vs veh, ZEB2 / RFU, NRIP1 / Fold change vs veh, NRIP1 / RFU, PTTG1IP / Fold change vs veh, PTTG1IP / RFU, CAPN2 / Fold change vs veh, CAPN2 / RFU, MED14 / Fold change vs veh, MED14 / RFU, SNORA58 / Fold change vs veh, SNORA58 / RFU, C1orf63 / Fold change vs veh, C1orf63 / RFU, LRRFIP1 / Fold change vs veh, LRRFIP1 / RFU, NDUFAF7 / Fold change vs veh, NDUFAF7 / RFU, SLC12A2 / Fold change vs veh, SLC12A2 / RFU, IBTK / Fold change vs veh, IBTK / RFU, ESF1 / Fold change vs veh, ESF1 / Fold change vs veh, TMEM50B / RFU, TAOK1 / Fold change vs veh, TAOK1 / RFU, ACBD3 / Fold change vs veh, ACBD3 / RFU, TMA16 / Fold change vs veh, TMA16 / RFU, RWDD3 / Fold change vs veh, RWDD3 / RFU, BCAT1 / Fold change vs veh, BCAT1 / RFU, EDEM3 / Fold change vs veh, EDEM3 / RFU, TMEM33 / Fold change vs veh, TMEM33 / RFU, WDR75 / Fold change vs veh, WDR75 / RFU, AHCTF1 / Fold change vs veh, AHCTF1 / RFU, TFRC / Fold change vs veh, TFRC / RFU, ZDHHC17 / Fold change vs veh, ZDHHC17 / RFU, NOM1 / Fold change vs veh, NOM1 / RFU, ARL8B / Fold change vs veh, ARL8B / RFU, ZBTB11 / Fold change vs veh, ZBTB11 / RFU, TAMM41 / Fold change vs veh, TAMM41 / RFU, KIAA1704 /// LOC100996395 / Fold change vs veh, KIAA1704 /// LOC100996395 / RFU, ING1 / Fold change vs veh, ING1 / RFU, TRMT61B / Fold change vs veh, TRMT61B / RFU, FUBP3 / Fold change vs veh, FUBP3 / RFU, TP53 / Fold change vs veh, TP53 / RFU, TNKS2 / Fold change vs veh, TNKS2 / RFU, ZFP14 / Fold change vs veh, ZFP14 / RFU, ACTR2 / Fold change vs veh, ACTR2 / RFU, PPP3R1 / Fold change vs veh, PPP3R1 / RFU, PIK3R1 / Fold change vs veh, PIK3R1 / RFU, HNRNPA1 / Fold change vs veh, HNRNPA1 / RFU, RNF170 / Fold change vs veh, RNF170 / RFU, ZNF28 / Fold change vs veh, ZNF28 / RFU, RNGTT / Fold change vs veh, RNGTT / RFU, OGT / Fold change vs veh, OGT / RFU, BRD1 / Fold change vs veh, BRD1 / RFU, MARS / Fold change vs veh, MARS / RFU, ZNF655 / Fold change vs veh, ZNF655 / RFU, FAHD1 / Fold change vs veh, FAHD1 / RFU, BDP1 / Fold change vs veh, BDP1 / RFU, LRRCC1 / Fold change vs veh, LRRCC1 / RFU, ARID1A / Fold change vs veh, ARID1A / RFU, ZNF146 / Fold change vs veh, ZNF146 / RFU, ZNF330 / Fold change vs veh, ZNF330 / RFU, GPN3 / Fold change vs veh, GPN3 / RFU, C9orf123 / Fold change vs veh, C9orf123 / RFU, N4BP2L2 / Fold change vs veh, N4BP2L2 / RFU, ARFIP1 / Fold change vs veh, ARFIP1 / RFU, FAM179B / Fold change vs veh, FAM179B / RFU, BCL10 / Fold change vs veh, BCL10 / RFU, UHRF1BP1L / Fold change vs veh, UHRF1BP1L / RFU, BET1 / Fold change vs veh, BET1 / RFU, CNOT2 / Fold change vs veh, CNOT2 / RFU, ZNF268 / Fold change vs veh, ZNF268 / Fold change vs veh, ZNF507 / RFU, DGCR2 / Fold change vs veh, DGCR2 / RFU, WDSUB1 / Fold change vs veh, WDSUB1 / Fold change vs veh, HSP90B1 /// MIR3652 / RFU, ADSS / Fold change vs veh, ADSS / RFU, GK / Fold change vs veh, GK / RFU, ZNF148 / Fold change vs veh, ZNF148 / RFU, TAF9 / Fold change vs veh, TAF9 / RFU, SLC1A5 / Fold change vs veh, SLC1A5 / RFU, SLMO2 / Fold change vs veh, SLMO2 / RFU, ABCC4 / Fold change vs veh, ABCC4 / RFU, LOC101060439 /// RAP1B / Fold change vs veh, LOC101060439 /// RAP1B / RFU, RFX7 / Fold change vs veh, RFX7 / RFU, GTPBP10 / Fold change vs veh, GTPBP10 / RFU, CNEP1R1 / Fold change vs veh, CNEP1R1 / RFU, BIVM-ERCC5 /// ERCC5 / Fold change vs veh, BIVM-ERCC5 /// ERCC5 / RFU, ILF3 / Fold change vs veh, ILF3 / RFU 11762660_at / Fold change /veh 11762660_at / RFU VCAN (11757783_s_at) / Fold change /veh VCAN (11757783_s_at) / RFU DDX43 (11728927_at) / Fold change /veh DDX43 (11728927_at) / RFU KRT8 (11758188_x_at) / Fold change /veh KRT8 (11758188_x_at) / RFU NKD1 (11759106_at) / Fold change /veh NKD1 (11759106_at) / RFU SRD5A1 (11742802_a_at) / Fold change /veh SRD5A1 (11742802_a_at) / RFU TPSAB1 /// TPSB2 (11721975_s_at) / Fold change /veh TPSAB1 /// TPSB2 (11721975_s_at) / RFU GSTM3 (11746129_a_at) / Fold change /veh GSTM3 (11746129_a_at) / RFU IL23R (11737362_x_at) / Fold change /veh IL23R (11737362_x_at) / RFU TMEM51 (11727254_a_at) / Fold change /veh TMEM51 (11727254_a_at) / RFU PIWIL2 (11732686_x_at) / Fold change /veh PIWIL2 (11732686_x_at) / RFU ORM1 (11744905_x_at) / Fold change /veh ORM1 (11744905_x_at) / RFU CCDC152 (11743942_at) / Fold change /veh CCDC152 (11743942_at) / RFU ECM1 (11717891_a_at) / Fold change /veh ECM1 (11717891_a_at) / RFU IL23R (11748794_a_at) / Fold change /veh IL23R (11748794_a_at) / RFU TNFAIP8L3 (11732012_x_at) / Fold change /veh TNFAIP8L3 (11732012_x_at) / RFU MBOAT4 (11741988_at) / Fold change /veh MBOAT4 (11741988_at) / RFU 11764193_at / Fold change /veh 11764193_at / RFU TMEM53 (11763286_at) / Fold change /veh TMEM53 (11763286_at) / RFU MAGEB2 (11727129_at) / Fold change /veh MAGEB2 (11727129_at) / RFU TMEM200A (11744735_a_at) / Fold change /veh TMEM200A (11744735_a_at) / RFU CCDC152 (11751479_a_at) / Fold change /veh CCDC152 (11751479_a_at) / RFU FAM211A (11726209_a_at) / Fold change /veh FAM211A (11726209_a_at) / RFU RGS16 (11746705_a_at) / Fold change /veh RGS16 (11746705_a_at) / RFU VCAN (11755009_s_at) / Fold change /veh VCAN (11755009_s_at) / RFU RHOB (11743442_s_at) / Fold change /veh RHOB (11743442_s_at) / RFU RGS16 (11720943_a_at) / Fold change /veh RGS16 (11720943_a_at) / RFU RGS16 (11720944_at) / Fold change /veh RGS16 (11720944_at) / RFU, VPS4B / Fold change vs veh, VPS4B / RFU, CREB1 / Fold change vs veh, CREB1 / RFU, DNAJC13 / Fold change vs veh, DNAJC13 / RFU, GNAQ / Fold change vs veh, GNAQ / RFU, CDK5R1 / Fold change vs veh, CDK5R1 / RFU, ZRANB3 / Fold change vs veh, ZRANB3 / RFU, CUL4A / Fold change vs veh, CUL4A / RFU, CCNY / Fold change vs veh, CCNY / RFU, UFL1 / Fold change vs veh, UFL1 / RFU, COG3 / Fold change vs veh, COG3 / RFU, DIAPH2 / Fold change vs veh, DIAPH2 / RFU, SKA2 / Fold change vs veh, SKA2 / RFU, AFF3 / Fold change vs veh, AFF3 / RFU, LMF1 / Fold change vs veh, LMF1 / RFU, IPO11 / Fold change vs veh, IPO11 / RFU, DFFB / Fold change vs veh, DFFB / RFU, FOXP1 / Fold change vs veh, FOXP1 / RFU, CARD8 / Fold change vs veh, CARD8 / RFU, STRN3 / Fold change vs veh, STRN3 / RFU, ADK / Fold change vs veh, ADK / RFU, RASSF2 / Fold change vs veh, RASSF2 / RFU, WIPF1 / Fold change vs veh, WIPF1 / RFU, LARP1B / Fold change vs veh, LARP1B / RFU, RASA1 / Fold change vs veh, RASA1 / RFU, RB1 / Fold change vs veh, RB1 / RFU, PPFIA1 / Fold change vs veh, PPFIA1 / RFU, MAT2A / Fold change vs veh, MAT2A / RFU, CCT5 / Fold change vs veh, CCT5 / RFU, WDR92 / Fold change vs veh, WDR92 / RFU, CUX1 / Fold change vs veh, CUX1 / RFU, TTC7A / Fold change vs veh, TTC7A / RFU, TMEM135 / Fold change vs veh, TMEM135 / RFU, DEPTOR / Fold change vs veh, DEPTOR / RFU, CPM / Fold change vs veh, CPM / RFU, DNAJB6 / Fold change vs veh, DNAJB6 / RFU, CACNA2D3 / Fold change vs veh, CACNA2D3 / RFU, DTX4 / Fold change vs veh, DTX4 / RFU, TFCP2 / Fold change vs veh, TFCP2 / RFU, GMCL1 /// GMCL1P1 / Fold change vs veh, GMCL1 /// GMCL1P1 / RFU, AEBP2 / Fold change vs veh, AEBP2 / RFU, SNHG1 /// SNORD22 /// SNORD25 /// SNORD26 /// SNORD27 /// SNORD28 /// SNORD29 /// SNORD31 / Fold change vs veh, SNHG1 /// SNORD22 /// SNORD25 /// SNORD26 /// SNORD27 /// SNORD28 /// SNORD29 /// SNORD31 / Fold change (Aza/veh), C12orf56 (ProbeSet 11735607_a_at) / Fold change (ACY-1035/veh), C12orf56 (ProbeSet 11735607_a_at) / Fold change (Aza/veh), FGFR1OP (ProbeSet 11751329_s_at) / Fold change (ACY-1035/veh), FGFR1OP (ProbeSet 11751329_s_at) / Fold change (Aza/veh), VPS36 (ProbeSet 11739960_a_at) / Fold change (ACY-1035/veh), VPS36 (ProbeSet 11739960_a_at) / RFU SYPL1 (11715823_x_at) / Fold change /veh SYPL1 (11715823_x_at) / RFU IGFBP7 (11715501_s_at) / Fold change /veh IGFBP7 (11715501_s_at) / RFU REEP3 (11722064_at) / Fold change /veh REEP3 (11722064_at) / RFU IGLL1 (11728026_x_at) / Fold change /veh IGLL1 (11728026_x_at): dose or concentration left out as unconfirmed
Conditions: ProbeSet 11758919_x_at; LIST D

With `Nc1ccc(-c2cccs2)cc1NC(=O)c1ccc2c(c1)cc(C1CC1)n2CCN1CCOCC1` [ACY-1035] the “Fold change vs veh, TFCP2” value was 0.94.
